This is an account of results in paper PMC8179178 (Chemical Science, 2021).

One data set is described as follows: Solubility in PBS. The data set is classed as physicochemical. The settings on record: aqueous buffer.
A further data set relates to MC38 cells. The experiment in a line: MTT cell proliferation assay. The settings on record: Mus musculus, MC-38, read-out: Cytotoxicity (IC50). The data set is classed as cell-based, murine. (In general: Tetrazolium dyes change colour on reduction, which living cells bring about.)
A further data set deals with rats. Conditions: given over 22 days; cited from earlier work.

The structures appear in SMILES notation. Values after ≈ are worked out from the molar mass of the structure shown. Counter-ions that a name gives are not always drawn.

Broadly, the solubility is how much of the substance goes into solution per volume. A word on the IC50: it is the concentration at which inhibition is half-maximal. On to `COc1cccc2c1C(=O)c1c(O)c3c(c(O)c1C2=O)C[C@@](O)(C(=O)CO)C[C@@H]3O[C@H]1C[C@H](N)[C@H](O)[C@H](C)O1` [Dox HCl, doxorubicin], for which, in the data set “Solubility in PBS”, the solubility was 3800 µg/mL. In addition, the half-inhibitory concentration (IC50) with MC38 cells was determined as 23 nM. In the data set with rats, the “Multi-dose MTD of conventional Dox” value was 10 mg/kg. As for `COc1cc([C@@H]2c3cc4c(cc3[C@@H](O[C@@H]3O[C@@H]5CO[C@@H](C)O[C@H]5[C@H](O)[C@H]3O)[C@H]3COC(=O)[C@H]23)OCO4)cc(OC)c1O` [ETP, etoposide], the solubility in the data set “Solubility in PBS” amounted to 2800 µg/mL (≈ 4.76 mM). Moreover, in the data set with MC38 cells, the IC50 is 160 nM. As to `Nc1ccn([C@@H]2O[C@H](CO)[C@@H](O)C2(F)F)c(=O)n1` [GCB HCl, gemcitabine], the half-maximal inhibitory concentration (IC50) with MC38 cells stood at 3 nM. Still for that read-out and setting: under `CC(=O)O[C@H]1C(=O)[C@@]2(C)[C@H]([C@H](OC(=O)c3ccccc3)[C@]3(O)C[C@H](OC(=O)[C@H](O)[C@@H](NC(=O)c4ccccc4)c4ccccc4)C(C)=C1C3(C)C)[C@]1(OC(C)=O)CO[C@@H]1C[C@@H]2O` [PTX, paclitaxel] stands 32 nM.
